The source of these data is paper PMC9558053, “Development of a novel high-throughput screen for the identification of new inhibitors of protein S-acylation” (The Journal of Biological Chemistry, 2022).

One test deals with T1, human zDHHC3 (Homo sapiens, UniProt Q9NYG2).
T1 construct: expressed in transfected cells; host or cells: HEK293T
T1 sequence (Q9NYG2 1-299): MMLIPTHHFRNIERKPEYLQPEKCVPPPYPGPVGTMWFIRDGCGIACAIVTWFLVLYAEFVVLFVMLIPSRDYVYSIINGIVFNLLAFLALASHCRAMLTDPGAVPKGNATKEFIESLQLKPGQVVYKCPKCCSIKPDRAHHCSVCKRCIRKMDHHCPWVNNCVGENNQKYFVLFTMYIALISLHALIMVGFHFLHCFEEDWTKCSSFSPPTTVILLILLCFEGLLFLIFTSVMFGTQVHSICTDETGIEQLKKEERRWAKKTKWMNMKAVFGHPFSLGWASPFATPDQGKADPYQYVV
Nature of the test: GFP-SNAP25b S-acylation in HEK293T cells co-expressing zDHHC3. Conditions: in cellulo HEK293T, compound 25 μM; for inhibition at 25 µM: HEK-293T, read-out: SNAP25 S-acylation inhibition (%), zDHHC3. In kind it is cell-based. The method, then:
(§1) We next investigated whether the identified compounds were effective at inhibiting zDHHC enzyme isoforms other than zDHHC2 (Fig. 6 and Table 1). […] We therefore treated cells coexpressing GFP-SNAP25 and each of these zDHHC enzymes with 25 μM of TTZ-1 and TTZ-2 and studied the subsequent effect on SNAP25 S-acylation. […] Importantly, the level of enzyme expression was unaffected by the compounds. […] As any major differences in the expression levels of the different enzymes could in theory contribute to the apparent differential effects of TTZ-1 and TTZ-2, we directly compared the expression of zDHHC2, zDHHC3, zDHHC7, zDHHC15, and zDHHC17 when transfected in HEK293T cells together with GFP-SNAP25.
Figure 6 Activity of TTZ-1 and TTZ-2 against SNAP25 S-acylation by human zDHHC2, zDHHC3, zDHHC7, zDHHC15, and zDHHC17 expressed in mammalian cells.A–E, HEK293T cells were transfected with a plasmid encoding GFP-SNAP25b together with either a control plasmid pEF-BOS-HA (pEF) or a plasmid encoding either HA-tagged human zDHHC2 (zD2) (A), zDHHC3 (zD3) (B), zDHHC7 (zD7) (C), zDHHC15 (zD15) (D), or zDHHC17 (zD17) (E) for 24 h. Cells were then preincubated for 4 h with TTZ-1 or TTZ-2 (25 μM final) or DMSO control before metabolic labeling with 100 μM C16:0-azide for 4 h. Cells were lysed, and proteins having incorporated C16:0-azide were labeled by click chemistry with an alkyne-IR800 dye. Protein samples were then resolved by SDS-PAGE and transferred to nitrocellulose membranes that were first stained with an infrared-680 total protein stain. Membranes were then destained and probed with an anti-HA antibody (IR680), followed by an anti-GFP antibody (IR680). Representative images are shown, and panels are presented in the following order (from top to bottom): click chemistry signal (Click [IR800]), GFP and HA immunoblots (IR680), and Total Protein Stain (IR680). […] Three independent experiments were performed either in duplicate or in triplicate, and the quantification data were gathered on the graphs below each set of membranes. […]

A further test has as its target T2, human zDHHC7 (Homo sapiens, UniProt Q9NXF8).
T2 construct: expressed in transfected cells; host or cells: HEK293T
T2 sequence (Q9NXF8 1-308): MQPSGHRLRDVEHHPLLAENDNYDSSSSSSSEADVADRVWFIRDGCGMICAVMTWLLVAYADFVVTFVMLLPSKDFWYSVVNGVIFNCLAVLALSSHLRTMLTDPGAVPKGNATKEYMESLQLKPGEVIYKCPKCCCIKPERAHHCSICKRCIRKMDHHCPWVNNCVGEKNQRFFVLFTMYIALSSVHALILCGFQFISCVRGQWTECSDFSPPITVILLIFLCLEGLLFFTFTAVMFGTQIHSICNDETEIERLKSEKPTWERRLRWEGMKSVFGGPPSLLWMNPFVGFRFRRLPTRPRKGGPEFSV
Nature of the test: GFP-SNAP25b S-acylation in HEK293T cells co-expressing zDHHC7. In kind it is cell-based. Conditions: in cellulo HEK293T, compound 25 μM; for inhibition at 25 µM: HEK-293T, read-out: SNAP25 S-acylation inhibition (%), zDHHC7. On the procedure:
as §1
Figure 6 Activity of TTZ-1 and TTZ-2 against SNAP25 S-acylation by human zDHHC2, zDHHC3, zDHHC7, zDHHC15, and zDHHC17 expressed in mammalian cells.A–E, HEK293T cells were transfected with a plasmid encoding GFP-SNAP25b together with either a control plasmid pEF-BOS-HA (pEF) or a plasmid encoding either HA-tagged human zDHHC2 (zD2) (A), zDHHC3 (zD3) (B), zDHHC7 (zD7) (C), zDHHC15 (zD15) (D), or zDHHC17 (zD17) (E) for 24 h. Cells were then preincubated for 4 h with TTZ-1 or TTZ-2 (25 μM final) or DMSO control before metabolic labeling with 100 μM C16:0-azide for 4 h. Cells were lysed, and proteins having incorporated C16:0-azide were labeled by click chemistry with an alkyne-IR800 dye. Protein samples were then resolved by SDS-PAGE and transferred to nitrocellulose membranes that were first stained with an infrared-680 total protein stain. Membranes were then destained and probed with an anti-HA antibody (IR680), followed by an anti-GFP antibody (IR680). Representative images are shown, and panels are presented in the following order (from top to bottom): click chemistry signal (Click [IR800]), GFP and HA immunoblots (IR680), and Total Protein Stain (IR680). Positions of the molecular mass markers (in kilodalton) are indicated on the right side of the membranes. Three independent experiments were performed either in duplicate or in triplicate, and the quantification data were gathered on the graphs below each set of membranes. […] Filled circles represent individual samples. […] Filled circles represent individual samples. Statistical analysis (ANOVA) was performed to test whether there was a significant difference between the zDHHC expression of cells treated with DMSO as a control versus similar samples treated with TTZ-1 or TTZ-2 (∗∗p < 0.01). F, samples from A, B, C, D, and E (expressing GFP-SNAP25 and HA-tagged zDHHC enzymes and treated with DMSO) were loaded on an SDS-PAGE gel and transferred to a nitrocellulose membrane. The membrane was probed for the expression of the HA-tagged enzymes with an anti-HA antibody (IR680). […]

One may read the inhibition as how much of the control response was suppressed. For the molecule `CCCCCCCOc1ccc(C(=O)Nc2cccc3c2OC(c2nnn[nH]2)CN3)cc1` (stereo not shown) [TTZ-1, N-(2-(1H-Tetrazol-5-yl)-3,4-dihydro-2H-benzo[b][1,4]oxazin-8-yl)-4-(heptyloxy)benzamide], on human zDHHC3, the inhibition at 25 µM was found to be 9 ± 4% and the “SNAP25 S-acylation inhibition (%), zDHHC3” value was “no significant effect”. Further, at human zDHHC7, the inhibition at 25 µM stood at 14 ± 7% and the “SNAP25 S-acylation inhibition (%), zDHHC7” value is “no significant effect”.

For the molecule `O=C(Nc1cccc2c1OC(c1nnn[nH]1)CN2)c1ccc(OCCCCc2ccccc2)cc1` (stereo not shown) [TTZ-2, N-(2-(1H-Tetrazol-5-yl)-3,4-dihydro-2H-benzo[b][1,4]oxazin-8-yl)-4-(4-phenylbutoxy)benzamide], the results for the inhibition at 25 µM on human zDHHC3 and at human zDHHC7 were 19 ± 3% and 13 ± 7%, respectively. Also, the “SNAP25 S-acylation inhibition (%), zDHHC7” value at human zDHHC7 is “no significant effect”.
